Oligonucleotides are written 5' to 3', each unit as a sugar letter and its base; * is a phosphorothioate linkage, no mark a phosphodiester; rarer units and linkages stand in square brackets, end groups in braces. Plain capitals give the bases only. m = 2'-O-methyl; f = 2'-fluoro

In this data set the test system is factor B mRNA transcript. Description: Knockdown of factor B expression in HepG2 cells using siRNAs, dose response experiments (DRC). The data set is classed as cell-based, human. The note with it: for Max Factor B inhibition (%): dose response up to 100 nM. How it is done: HepG2 cells were obtained from ATCC (ATCC in partnership with LGC Standards, Wesel, Germany, cat. #ATCC-HB-8065) and cultured in MEM Eagle (#M2279, Sigma-Aldrich, Germany), supplemented to contain 10% fetal calf serum (#1248D, Biochrom GmbH, Berlin, Germany), 1×non-essential amino acids (#K0293; Biochrom, Berlin, Germany), 4 mM L-Glutamine (#K0283, Biochrom, Berlin, Germany) and 100 U/ml Penicillin/100 μg/ml Streptomycin (#A2213, Biochrom GmbH, Berlin, Germany) at 37° C. in an atmosphere with 5% CO2 in a humidified incubator.
24 siRNAs were designed and synthesized to target different regions of the factor B mRNA transcript. In this experiment, the sense strand of each siRNA contained 18 nucleotides identical to a target region sequence on the factor B transcript (SEQ ID NO: 75), and one additional adenine nucleotide at the 3′ end. Additionally, in this experiment, the antisense strand contained 18 nucleotides complementary to a target region sequence on the factor B transcript (SEQ ID NO: 75), and one additional uracil nucleotide at the 5′ end, and 2 additional uracil nucleotides at the 3′ end.
Transfection of siRNA was carried out with Lipofectamine RNAiMax (Invitrogen/Life Technologies, Karlsruhe, Germany) according to manufacturer's instructions for reverse transfection.
Each siRNA was tested using dose response experiments (DRC) in HepG2 cells. Dose-response experiments were done with siRNA in 10 concentrations transfected in quadruplicates, starting at 100 nM in 6-fold dilutions steps down to ˜10 fM. Mock transfected cells served as negative controls.
For each well, the target mRNA level was normalized to the respective GAPDH mRNA level. The activity of a given siRNA was expressed as percent mRNA concentration of the respective target (normalized to GAPDH mRNA) in treated cells, relative to the target mRNA concentration (normalized to GAPDH mRNA) averaged across mock transfected wells (DRCs).
Dose response experiments described above were repeated in a subset of siRNAs shown in Table 9, specifically siRNAs 2, 7, 8, and 3.

Setting [1] is: reverse transfection, 10 concentrations from 100 nM in 6-fold dilutions, factor B mRNA normalized to GAPDH, relative to mock, Table 8.
Setting [2] is: additional (repeated) dose response experiments, Table 10.

On to “11 (sense mA*mC*fCmAmUmAfGfAfAmGmGfAmGmUmCmGfAmUmA; antisense mU*fA*mUmCmGmAmCmUmCmCmUmUmCfUmAmUmGmGmU*mU*mU; siRNA) [compound 11]”, for which the “Max Factor B inhibition (%)” value (Table 8) stood at 81.08%. Under setting [1], this substance displayed a concentration for an effect of 20% (IC20) of 0.01 nM, an IC50 of 0.26 nM and an IC80 of 2350 nM.

On to “17 (sense mC*mU*fCmAmCmGfCfCfCmGmAfGmAmCmUmUfUmCmA; antisense mU*fG*mAmAmAmGmUmCmUmCmGmGmGfCmGmUmGmAmG*mU*mU; siRNA) [compound 17]”, for which the “Max Factor B inhibition (%)” value (Table 8) worked out at 75.50%. In addition, under setting [1], it took 0.07 nM to reach the 20% level (IC20) and 0.85 nM corresponded to half-maximal inhibition (IC50).

“5 (sense mG*mG*fGmGmAmGfUfAfGmUmGfGmAmUmGmUfCmUmA; antisense mU*fA*mGmAmCmAmUmCmCmAmCmUmAfCmUmCmCmCmC*mU*mU; siRNA) [compound 5]”: for the setting “Table 8”, the “Max Factor B inhibition (%)” value is given as 86.90%. In addition, under setting [1], the 20% effect level (IC20) was put at 0.1 nM, half-maximal inhibition (IC50) required 0.67 nM and the IC80 came out at 9.65 nM.

Turning to “13 (sense mA*mC*fGmUmUmGfCfCfCmUmGfAmUmCmAmAfGmCmA; antisense mU*fG*mCmUmUmGmAmUmCmAmGmGmGfCmAmAmCmGmU*mU*mU; siRNA) [compound 13]”, under “Table 8”, the “Max Factor B inhibition (%)” value was 80.41%. Also, under setting [1], the IC20 is 0.06 nM, the IC50 was 0.69 nM and it took 1340 nM to reach the 80% level (IC80).

For the substance “3 (sense mU*mU*fCmUmGmGfCfUfUmCmUfAmCmCmCmGfUmAmA; antisense mU*fU*mAmCmGmGmGmUmAmGmAmAmGfCmCmAmGmAmA*mU*mU; siRNA) [compound 3]”, under setting [2], the IC20 amounted to 0.0722 nM, inhibition was half-maximal at 0.204 nM (IC50), the concentration for an effect of 80% (IC80) amounted to 0.886 nM and the “Max KD [%]” value is given as 87%. Further, the “Max Factor B inhibition (%)” value (Table 8) is listed as 89.76%. Under setting [1], this substance displayed an IC20 of 0.02 nM, an IC50 of 0.29 nM and an 80% effect concentration (IC80) of 12 nM.

With “12 (sense mG*mG*fAmUmUmAfUfCfUmGmGfAmUmGmUmCfUmAmA; antisense mU*fU*mAmGmAmCmAmUmCmCmAmGmAfUmAmAmUmCmC*mU*mU; siRNA) [compound 12]”, the “Max Factor B inhibition (%)” value (Table 8) came out at 80.54%. Under setting [1], this substance came in with a concentration for an effect of 20% (IC20) of 0.13 nM, a half-inhibitory concentration (IC50) of 0.89 nM and an IC80 of 183 nM.

In the case of “21 (sense mC*mC*fUmUmGmAfUfAfGmUmUfCmAmCmAmAfGmAmA; antisense mU*fU*mCmUmUmGmUmGmAmAmCmUmAfUmCmAmAmGmG*mU*mU; siRNA) [compound 21]”, the “Max Factor B inhibition (%)” value (Table 8) came to 72.43%. Under setting [1], this substance returned an IC20 of 0.12 nM and a concentration for half-maximal inhibition (IC50) of 1.63 nM.

Consider “8 (sense mA*mA*fGmUmGmUfCfUfAmGmUfCmAmAmCmUfUmAmA; antisense mU*fU*mAmAmGmUmUmGmAmCmUmAmGfAmCmAmCmUmU*mU*mU; siRNA) [compound 8]”, for which, under setting [2], the IC20 is 0.0889 nM, it took 0.271 nM to reach half-maximal inhibition (IC50) and the “Max KD [%]” value turned out to be 76.2%. Moreover, under “Table 8”, the “Max Factor B inhibition (%)” value was 82.24%. Under setting [1], 0.16 nM corresponded to half-maximal inhibition (IC50) and the IC80 was 717 nM.

“7 (sense mU*mA*fCmGmUmGfUfGfUmCmCfUmUmCmUmGfGmCmA; antisense mU*fG*mCmCmAmGmAmAmGmGmAmCmAfCmAmCmGmUmA*mU*mU; siRNA) [compound 7]”: under setting [2], the IC20 is 0.026 nM, the 50% inhibitory concentration (IC50) was found to be 0.103 nM, the concentration for an effect of 80% (IC80) turned out to be 0.868 nM and the “Max KD [%]” value stood at 83.5%. For the same substance, the “Max Factor B inhibition (%)” value (Table 8) turned out to be 82.44%. Under setting [1], this substance had a concentration for half-maximal inhibition (IC50) of 0.02 nM and a concentration for an effect of 80% (IC80) of 670 nM.

Regarding “14 (sense mG*mG*fAmGmCmCfAfAfAmAmAfGmUmGmUmCfUmAmA; antisense mU*fU*mAmGmAmCmAmCmUmUmUmUmUfGmGmCmUmCmC*mU*mU; siRNA) [compound 14]”, the “Max Factor B inhibition (%)” value (Table 8) stood at 79.20%. Under setting [1], this substance returned an IC20 of 0.22 nM and a half-maximal inhibitory concentration (IC50) of 1.3 nM.

On to “16 (sense mA*mA*fUmGmCmAfGfAfCmUmGfGmGmUmCmAfCmGmA; antisense mU*fC*mGmUmGmAmCmCmCmAmGmUmCfUmGmCmAmUmU*mU*mU; siRNA) [compound 16]”, for which, under “Table 8”, the “Max Factor B inhibition (%)” value is given as 77.05%. Further, under setting [1], the IC20 was found to be 0.01 nM and the IC50 was 0.3 nM.

Consider “18 (sense mC*mA*fGmCmGmAfUfCfUmGmUfGmAmCmAmAfCmGmA; antisense mU*fC*mGmUmUmGmUmCmAmCmAmGmAfUmCmGmCmUmG*mU*mU; siRNA) [compound 18]”, for which, for the setting “Table 8”, the “Max Factor B inhibition (%)” value was 75.45%. Under setting [1], this substance returned an IC20 of 0.3 nM and a 50% inhibitory concentration (IC50) of 2.02 nM.

Turning to “9 (sense mC*mU*fAmUmGmAfCfGfUmUmGfCmCmCmUmGfAmUmA; antisense mU*fA*mUmCmAmGmGmGmCmAmAmCmGfUmCmAmUmAmG*mU*mU; siRNA) [compound 9]”, the “Max Factor B inhibition (%)” value (Table 8) was determined as 82.07%. Under setting [1], this substance came in with a concentration for an effect of 20% (IC20) of 0.01 nM, an IC50 of 0.27 nM and an IC80 of 142 nM.

“10 (sense mC*mU*fCmGmGmUfUfCfCmUmUfUmGmUmAmCfUmGmA; antisense mU*fC*mAmGmUmAmCmAmAmAmGmGmAfAmCmCmGmAmG*mU*mU; siRNA) [compound 10]”: the “Max Factor B inhibition (%)” value (Table 8) was 81.72%. Under setting [1], this substance gave an IC20 of 0.43 nM, an IC50 of 1.7 nM and an 80% effect concentration (IC80) of 31.6 nM.

Regarding “15 (sense mC*mC*fGmAmUmUfAfCfCmAmCfAmAmGmCmAfAmCmA; antisense mU*fG*mUmUmGmCmUmUmGmUmGmGmUfAmAmUmCmGmG*mU*mU; siRNA) [compound 15]”, the “Max Factor B inhibition (%)” value (Table 8) came out at 78.63%. Under setting [1], this substance came in with a concentration for an effect of 20% (IC20) of 1.7 nM and an IC50 of 6.31 nM.

Turning to “4 (sense mC*mU*fGmCmUmAfUfGfAmCmGfGmUmUmAmCfAmCmA; antisense mU*fG*mUmGmUmAmAmCmCmGmUmCmAfUmAmGmCmAmG*mU*mU; siRNA) [compound 4]”, the “Max Factor B inhibition (%)” value (Table 8) was found to be 88.29%. Further, under setting [1], the IC20 came to 0.05 nM, the half-maximal inhibitory concentration (IC50) was found to be 0.48 nM and the 80% effect level (IC80) was put at 10.9 nM.

Regarding “24 (sense mU*mU*fCmCmGmAfCfUfUmCmUfCmCmAmAmGfAmGmA; antisense mU*fC*mUmCmUmUmGmGmAmGmAmAmGfUmCmGmGmAmA*mU*mU; siRNA) [compound 24]”, where the note is “Table 8”, the “Max Factor B inhibition (%)” value was 61.56%. Under setting [1], this substance displayed a concentration for an effect of 20% (IC20) of 0.51 nM and a half-inhibitory concentration (IC50) of 2.76 nM.

As for “6 (sense mU*mG*fUmGmGmUfGfUfCmUmGfAmGmUmAmCfUmUmA; antisense mU*fA*mAmGmUmAmCmUmCmAmGmAmCfAmCmCmAmCmA*mU*mU; siRNA) [compound 6]”, the “Max Factor B inhibition (%)” value (Table 8) is 85.34%. For the same substance, under setting [1], it took 0.03 nM to reach the 20% level (IC20), the concentration for half-maximal inhibition (IC50) is 0.37 nM and the 80% effect concentration (IC80) turned out to be 16.1 nM.

In the case of “20 (sense mU*mU*fUmAmUmGfAfCfUmAmUfGmAmCmGmUfUmGmA; antisense mU*fC*mAmAmCmGmUmCmAmUmAmGmUfCmAmUmAmAmA*mU*mU; siRNA) [compound 20]”, the “Max Factor B inhibition (%)” value (Table 8) came to 74.02%. Also, under setting [1], the IC20 was determined as 1.1 nM and the IC50 worked out at 3.52 nM.

“22 (sense mC*mU*fCmAmAmGfAfGfGmUmGfGmCmCmGmAfAmGmA; antisense mU*fC*mUmUmCmGmGmCmCmAmCmCmUfCmUmUmGmAmG*mU*mU; siRNA) [compound 22]”: the “Max Factor B inhibition (%)” value (Table 8) stood at 72.01%. Besides, under setting [1], the concentration for an effect of 20% (IC20) came to 0.32 nM and the IC50 was 2.09 nM.

One may read the IC20 as the concentration needed for an effect of 20%. A word on the IC50: it is the point on the concentration scale where inhibition reaches its midpoint. Usually IC80 stands for the concentration needed for an effect of 80%. A low value points to an effect from little substance.

For the origin of these results see US20250075209A1, “RNAS FOR COMPLEMENT INHIBITION” (Apellis Pharmaceuticals, Inc., priority 2021, published 2025).
